{
  "source": "patent US7019015B2",
  "about": "“Fungicide for plants” (Valent BioSciences, Inc., priority 2003, dated 2006)",
  "key": {"Sclerotinia sclerotiorum": {"test_system": "Sclerotinia sclerotiorum", "test": "Contact evaluation (microtiter plate), Sclerotinia sclerotiorum", "format": "cell-based", "details": "Sclerotinia scierotionum", "description": "(§1) Compound solution: Contact evaluations were conducted to determine the anti-fungal activity of each compound against Botrytis cinerea, Sclerotinia sclerotiorum, Pythium aphanidermatum, Rhizoctonia solani, Cercospora arachidicola, Mycosphaerella fijiensis, and Monilinia laxa. Five milligrams of each compound were dissolved in 0.5 milliliter of DMSO for a compound stock solution of 1.0% w/v. Compound stock solutions were serial diluted with DMSO to 20, 10, and 2 ppm final well concentration. Fungi preparation: Botrytis cinerea spores were taken from 6-week-old cultures grown at 22C on full strength potato dextrous agar (PDA) plates. Sclerotinia sclerotiorum, Pythium aphanidermatum, Rhizoctonia solani, and Monilinia laxa mycelia were taken from 4- to 10-day-old shake flask cultures grown at room temperature on full strength potato dextrous broth (PDB). Cercospora arachidicola mycelia were taken from 10- to 14-day-old shake flask cultures grown at room temperature on a full strength PDB amended with peanut oil. Mycosphaerella fijiensis mycelia were taken from 10- to 14-day-old shake flask cultures grown at room temperature on V8 juice broth. Sclerotinia sclerotiorum, Pythium aphanidermatum, Rhizoctonia solani, Cercospora arachidicola, and Mycosphaerella fijiensis mycelia (0.4 g mycelia) were blended for 45 seconds in 20 mL sterile de-ionized water. Monilinia laxa mycelia (1 g mycelia) was blended for 45 seconds in 30 mL of sterile de-ionized water. Botrytis cinerea spores were diluted with quarter strength PDB to 1×10^5 spores/mL final well concentration. All mycelia were diluted in water (1:5 mycelia:water) before distributing into the wells. Microtiter plate preparation: Compound solution (10 :L), quarter strength PDB (900 :L) and fungi preparation (100 :L) were sequentially distributed into 48-well microtiter plates (n=3 replications/compound/rate). A blank consisted of quarter strength PDB and fungi preparation. […] Final readings were the average of the three wells (Table 1)."}, "Botrytis cinerea [1]": {"test_system": "Botrytis cinerea", "test": "Detached bean leaf bioassay, fungal control", "format": "in vivo", "details": "200 ppm on detached bean leaf; 100 minus percent necrotic area, three days after inoculation", "description": "Detached Bean Leaf Bioassay\nCompound solution: Compound solutions were prepared by diluting compound stock solutions (1.0% w/v compound in DMSO) to 200 ppm with 0.01% w/v Triton X-100.\nSpore solution preparation: Botrytis cinerea spores were taken from 6-week-old cultures grown at 22C on full strength potato dextrous agar (PDA) plates and harvested in 1:16 frozen orange juice concentrate:water. Botrytis cinerea spore solutions were prepared by diluting spore cultures to 5×10^4 spores/mL with 1:16 frozen orange juice concentrate:water.\nPlant material: Middle trifoliate leaves of greenhouse grown Phaseolus vulgaris (Bush bean cv. Blue Lake 274) were excised and placed on a plastic grid above a tray containing moist towels.\nTreatment method: One half of the adaxial surface of the leaf was treated with the compound solution (100 :L) using a 3 cm Bacti Cell Spreader. A blank consisted of 0.01% w/v Triton X-100. A commercial fungicide control (200 ppm diluted with water) consisted of Scala. […]\nFungal control rating: Three days after inoculation with Botrytis, the percent necrotic area under the inoculation droplet was determined. Since the areas under the blank (0.01% w/v Triton X-100) were 100% infected, fungal control was expressed as 100 minus the percent necrotic area, and thus 0% infected is 100% fungal control (n=3 leaves/compound, 5 inoculation droplets/leaf, Table 2)."}, "Rhizoctonia solani": {"test_system": "Rhizoctonia solani", "test": "Contact evaluation (microtiter plate), Rhizoctonia solani", "format": "cell-based", "details": "Rhizoctinia solani", "description": "as §1"}, "Cercospora arachidicola": {"test_system": "Cercospora arachidicola", "test": "Contact evaluation (microtiter plate), Cercospora arachidicola", "format": "cell-based", "description": "as §1"}, "Mycosphaerella fijiensis": {"test_system": "Mycosphaerella fijiensis", "test": "Contact evaluation (microtiter plate), Mycosphaerella fijiensis", "format": "cell-based", "description": "as §1"}, "[2]": {"test_system": "Phaseolus vulgaris (Bush bean cv. Blue Lake 274) leaves", "test": "Detached bean leaf bioassay, phytotoxicity rating", "format": "in vivo", "description": "Compound solution: Compound solutions were prepared by diluting compound stock solutions (1.0% w/v compound in DMSO) to 200 ppm with 0.01% w/v Triton X-100. Plant material: Middle trifoliate leaves of greenhouse grown Phaseolus vulgaris (Bush bean cv. Blue Lake 274) were excised and placed on a plastic grid above a tray containing moist towels. Treatment method: One half of the adaxial surface of the leaf was treated with the compound solution (100 :L) using a 3 cm Bacti Cell Spreader. A blank consisted of 0.01% w/v Triton X-100. A commercial fungicide control (200 ppm diluted with water) consisted of Scala. After the solutions dried, the trays containing the leaves were covered and held one day in a growth chamber (22C). The adaxial surfaces of the leaves were then inoculated with 5–60 :L droplets of Botrytis cinerea spore solution. Phytotoxicity ratings: Phytotoxicity was rated as 0=no phytotoxicity, 1=slight phytotoxicity, 2=moderate phytotoxicity, or 3=excessive phytotoxicity (Table 2)."}, "Botrytis cinerea [3]": {"test_system": "Botrytis cinerea", "test": "Contact evaluation (microtiter plate), Botrytis cinerea", "format": "cell-based", "description": "as §1"}, "Monilinia laxa": {"test_system": "Monilinia laxa", "test": "Contact evaluation (microtiter plate), Monilinia laxa", "format": "cell-based", "description": "as §1"}, "Pythium aphanidermatum": {"test_system": "Pythium aphanidermatum", "test": "Contact evaluation (microtiter plate), Pythium aphanidermatum", "format": "cell-based", "description": "as §1"}},
  "data": [
    {"smiles": "COc1ccc(C2(OC)c3ccccc3N(c3ccccc3)c3ccccc32)cc1", "note": "[formula I, 9-phenyl-10-methoxy-10-(4-methoxyphenyl)-9,10-dihydroacridine]", "values": [
      {"measurement": "Control of fungi (full, partial, none)", "setting": "Sclerotinia sclerotiorum; fungicide rate 2 ppm", "value": "Partial"},
      {"measurement": "Control of fungi (full, partial, none)", "setting": "Sclerotinia sclerotiorum; fungicide rate 10 ppm", "value": "Full"},
      {"measurement": "Control of fungi (full, partial, none)", "setting": "Sclerotinia sclerotiorum; fungicide rate 20 ppm", "value": "Full"},
      {"measurement": "Botrytis cinerea control (200 ppm)", "setting": "Botrytis cinerea [1]", "value": 80, "unit": "%"},
      {"measurement": "Control of fungi (full, partial, none)", "setting": "Rhizoctonia solani; fungicide rate 2 ppm", "value": "Full"},
      {"measurement": "Control of fungi (full, partial, none)", "setting": "Rhizoctonia solani; fungicide rate 10 ppm", "value": "Full"},
      {"measurement": "Control of fungi (full, partial, none)", "setting": "Rhizoctonia solani; fungicide rate 20 ppm", "value": "Full"},
      {"measurement": "Control of fungi (full, partial, none)", "setting": "Cercospora arachidicola; fungicide rate 2 ppm", "value": "None"},
      {"measurement": "Control of fungi (full, partial, none)", "setting": "Cercospora arachidicola; fungicide rate 10 ppm", "value": "Full"},
      {"measurement": "Control of fungi (full, partial, none)", "setting": "Cercospora arachidicola; fungicide rate 20 ppm", "value": "Full"},
      {"measurement": "Control of fungi (full, partial, none)", "setting": "Mycosphaerella fijiensis; fungicide rate 2 ppm", "value": "None"},
      {"measurement": "Control of fungi (full, partial, none)", "setting": "Mycosphaerella fijiensis; fungicide rate 10 ppm", "value": "Partial"},
      {"measurement": "Control of fungi (full, partial, none)", "setting": "Mycosphaerella fijiensis; fungicide rate 20 ppm", "value": "Full"},
      {"measurement": "Phytotoxity (200 ppm)", "setting": "[2]", "value": "Slight"},
      {"measurement": "Control of fungi (full, partial, none)", "setting": "Botrytis cinerea [3]; fungicide rate 2 ppm", "value": "Partial"},
      {"measurement": "Control of fungi (full, partial, none)", "setting": "Botrytis cinerea [3]; fungicide rate 10 ppm", "value": "Full"},
      {"measurement": "Control of fungi (full, partial, none)", "setting": "Botrytis cinerea [3]; fungicide rate 20 ppm", "value": "Full"},
      {"measurement": "Control of fungi (full, partial, none)", "setting": "Monilinia laxa; fungicide rate 2 ppm", "value": "Full"},
      {"measurement": "Control of fungi (full, partial, none)", "setting": "Monilinia laxa; fungicide rate 10 ppm", "value": "Full"},
      {"measurement": "Control of fungi (full, partial, none)", "setting": "Monilinia laxa; fungicide rate 20 ppm", "value": "Full"},
      {"measurement": "Control of fungi (full, partial, none)", "setting": "Pythium aphanidermatum; fungicide rate 2 ppm", "value": "Full"},
      {"measurement": "Control of fungi (full, partial, none)", "setting": "Pythium aphanidermatum; fungicide rate 10 ppm", "value": "Full"},
      {"measurement": "Control of fungi (full, partial, none)", "setting": "Pythium aphanidermatum; fungicide rate 20 ppm", "value": "Full"}
    ]}
  ]
}
